These results are taken from patent US20060217351A1, “Method for treating cardiovascular diseases” (priority 2003, published 2006).

Series [1] deals with platelet aggregation. Nature of the series: anti-platelet aggregation ability of active metabolite enantiomers. The conditions noted are these: enantiomers of active metabolite II. The text has this: The active metabolite is a mixture of four enantiomers each of which has shown dose dependent anti-platelet aggregation ability, and thus useful for the practice of the invention.

For another series, the system named is cerebral infarct. Nature of the series: embolic cerebral infarction model. It is filed as in vivo. The note with it: rats.
Series [2] deals with platelet aggregation. Nature of the series: comparative study of inhibition of platelet aggregation. It is filed as in vivo. The conditions noted are these: for inhibition of platelet aggregation: in thirty (30) minutes.
The subject of the next series is thrombus formation. The conditions noted are these: rats, p.o., cited from earlier work; for ED50, prevention of thrombus formation: arteriovenous shunt model.
Series [3] can be described thus: storage stability of crystals. It is filed as physicochemical. The conditions noted are these: crystal form comparison.

As for `O=C(O)/C=C1/CN(C(C(=O)C2CC2)c2ccccc2F)CCC1S` (stereo not drawn) [RS enantiomer], in the series with platelet aggregation [1], the anti-platelet aggregation ability entry is “most potent”.
On to `COC(=O)[C@H](c1ccccc1Cl)N1CCc2sccc2C1` [clopidogrel bisulfate], for which, in the series on cerebral infarct, the “effect on total area of cerebral infarct” value is “similar, yet milder effect on cerebral infarcts” and the “potency compared to compound of formula I (times less potent)” value is reported as “about 10 times”.
On to `COC(=O)[C@H](c1ccccc1Cl)N1CCc2sccc2C1` [clopidogrel, reference compound], for which, in the series on platelet aggregation [2], the “inhibition of platelet aggregation” value is given as “minimal aggregation”. In addition, the “ED50, prevention of thrombus formation” value in the series on thrombus formation is recorded as 7.0 mg/kg.
In the case of `CC(=O)Oc1cc2c(s1)CCN(C(C(=O)C1CC1)c1ccccc1F)C2` (stereo not drawn) [compound of formula I, 2-Acetoxy-5-(α-cyclopropylcarbonyl-2-fluorobenzyl)-4,5,6,7-tetrahydrothieno[3,2-c]pyridine], the “inhibition of platelet aggregation” value with platelet aggregation [2] is “greater than 50%”. Also, the “potency compared to clopidogrel (times higher)” value in the series on platelet aggregation [2] (in vivo, versus clopidogrel) is recorded as “approximately 10 times”. Moreover, the “effect on total area of cerebral infarct” value with cerebral infarct was “reduced the total area of cerebral infarct in rats, in a dose related manner”. Moreover, in the series with thrombus formation (0.12-3 mg/kg), the “effect on thrombus formation” value is listed as “prevented thrombus formation in a dose dependent manner”. Moreover, the “ED50, prevention of thrombus formation” value in the series on thrombus formation is recorded as 0.65 mg/kg.
Regarding `CC(=O)Oc1cc2c(s1)CCN(C(C(=O)C1CC1)c1ccccc1F)C2.Cl` (stereo not drawn) [crystal B1, 2-Acetoxy-5-(α-cyclopropylcarbonyl-2-fluorobenzyl)-4,5,6,7-tetrahydrothieno[3,2-c]pyridine hydrochloride (crystal B1)], the storage stability entry in series [3] is “more excellent storage stability than crystal A”.
With `CC(=O)Oc1cc2c(s1)CCN(C(C(=O)C1CC1)c1ccccc1F)C2.Cl` (stereo not drawn) [crystal B2, 2-Acetoxy-5-(α-cyclopropylcarbonyl-2-fluorobenzyl)-4,5,6,7-tetrahydrothieno[3,2-c]pyridine hydrochloride (crystal B2)], the storage stability entry in series [3] is recorded as “more excellent storage stability than crystal B1”.
